{"source": "ChEMBL document CHEMBL4715876", "about": "(J Med Chem, 2020)", "key": {"[1]": {"test": "AUClast in BALB/C mouse at 10 mg/kg,po measured upto 24 hrs by LC-MS analysis", "format": "ADME, organism-based", "design": "route oral, dose 10 mg/kg, time <= 24", "conditions": "in vivo"}, "[2]": {"test": "Lipophilicity, log D of compound at pH 7.4", "format": "physicochemical", "conditions": "buffer"}, "[3]": {"test": "Cmax in BALB/C mouse at 1 mg/kg, iv measured upto 24 hrs by LC-MS analysis", "format": "ADME, organism-based", "design": "route intravenous, dose 1 mg/kg, time <= 24", "conditions": "in vivo"}, "[4]": {"test": "Tmax in BALB/C mouse at 1 mg/kg, iv measured upto 24 hrs by LC-MS analysis", "format": "ADME, organism-based", "conditions": "in vivo"}, "[5]": {"test": "Tmax in BALB/C mouse at 10 mg/kg, po measured upto 24 hrs by LC-MS analysis", "format": "ADME, organism-based", "conditions": "in vivo"}, "[6]": {"test": "Cmax in BALB/C mouse at 10 mg/kg,po measured upto 24 hrs by LC-MS analysis", "format": "ADME, organism-based", "design": "route oral, dose 10 mg/kg, time <= 24", "conditions": "in vivo"}, "[7]": {"test": "Oral bioavailability in BALB/C mouse at 10 mg/kg measured upto 24 hrs by LC-MS analysis", "format": "ADME, organism-based", "conditions": "in vivo"}, "[8]": {"test": "Volume of distribution at steady state in BALB/C mouse at 1 mg/kg, iv measured upto 24 hrs by LC-MS analysis", "format": "ADME, organism-based", "conditions": "in vivo, read-out: Vdss"}, "[9]": {"test": "Solubility of the compound", "format": "physicochemical"}, "[10]": {"test": "AUClast in BALB/C mouse at 1 mg/kg, iv measured upto 24 hrs by LC-MS analysis", "format": "ADME, organism-based", "design": "route intravenous, dose 1 mg/kg, time <= 24", "conditions": "in vivo"}, "[11]": {"test": "Drug uptake in CB.17 SCID mouse xenografted with TMD-8 cells tumor at 30 mg/kg, po once daily for 19 days", "format": "ADME, organism-based, Neoplasm", "conditions": "time 19 day, read-out: Drug uptake"}, "[12]": {"test": "Drug uptake in CB.17 SCID mouse tumor xenografted with SUDHL-6 cells assessed as effect on body weight at 5 mg/kg, po once daily for 15 days", "format": "ADME, organism-based, Neoplasm", "conditions": "time 15 day, read-out: Drug uptake"}, "[13]": {"test": "Cmax in Sprague-Dawley rat at 1 mg/kg, iv measured upto 24 hrs by LC-MS/MS analysis", "format": "ADME, organism-based", "design": "route intravenous, dose 1 mg/kg, time <=24", "conditions": "in vivo"}, "[14]": {"test": "Free drug concentration in CB.17 SCID mouse xenografted with OCI-LY10 cells at 30 mg/kg, po once daily for 24 days", "format": "ADME, organism-based", "conditions": "in vivo, 576 h, time 24 day"}, "[15]": {"test": "Plasma concentration in CB.17 SCID mouse xenografted with TMD-8 cells at 3 mg/kg, po once daily for 19 days", "format": "ADME, organism-based", "conditions": "time 19 day"}, "[16]": {"test": "Cmax in Sprague-Dawley rat at 10 mg/kg, po measured upto 24 hrs by LC-MS/MS analysis", "format": "ADME, organism-based", "design": "route oral, dose 10 mg/kg, time <=24", "conditions": "in vivo"}, "[17]": {"test": "Oral bioavailability in Sprague-Dawley rat at 10 mg/kg measured upto 24 hrs by LC-MS/MS analysis", "format": "ADME, organism-based", "conditions": "in vivo"}, "[18]": {"test": "Plasma concentration in CB.17 SCID mouse xenografted with OCI-LY10 cells at 1 mg/kg, po once daily for 24 days", "format": "ADME, organism-based", "conditions": "time 24 day"}, "[19]": {"test": "Plasma concentration in CB.17 SCID mouse xenografted with OCI-LY10 cells at 30 mg/kg, po once daily for 24 days", "format": "ADME, organism-based", "conditions": "time 24 day"}, "[20]": {"test": "Volume of distribution at steady state in Beagle dog at 1 mg/kg, iv measured upto 24 hrs by LC-MS/MS analysis", "format": "ADME, organism-based, Canis lupus familiaris", "conditions": "beagle, in vivo, read-out: Vdss"}, "[21]": {"test": "Plasma concentration in CB.17 SCID mouse xenografted with TMD-8 cells at 1 mg/kg, po once daily for 19 days", "format": "ADME, organism-based", "conditions": "time 19 day"}, "[22]": {"test": "Volume of distribution at steady state in Sprague-Dawley rat at 1 mg/kg, iv measured upto 24 hrs by LC-MS/MS analysis", "format": "ADME, organism-based", "conditions": "in vivo, read-out: Vdss"}, "[23]": {"test": "Plasma concentration in CB.17 SCID mouse xenografted with TMD-8 cells at 10 mg/kg, po once daily for 19 days", "format": "ADME, organism-based", "conditions": "time 19 day"}, "[24]": {"test": "Drug uptake in CB.17 SCID mouse tumor xenografted with TMD-8 cells at 3 mg/kg, po once daily for 19 days", "format": "ADME, organism-based, Neoplasm", "conditions": "time 19 day, read-out: Drug uptake"}, "[25]": {"test": "Plasma concentration in CB.17 SCID mouse xenografted with TMD-8 cells at 30 mg/kg, po once daily for 19 days", "format": "ADME, organism-based", "conditions": "time 19 day"}, "[26]": {"test": "Drug uptake in CB.17 SCID mouse tumor xenografted with OCI-LY10 cells at 30 mg/kg, po once daily for 24 days", "format": "ADME, organism-based, Neoplasm", "conditions": "time 24 day, read-out: Drug uptake"}, "[27]": {"test": "Plasma concentration in CB.17 SCID mouse xenografted with OCI-LY10 cells at 10 mg/kg, po once daily for 24 days", "format": "ADME, organism-based", "conditions": "time 24 day"}, "[28]": {"test": "Drug uptake in CB.17 SCID mouse tumor xenografted with TMD-8 cells at 10 mg/kg, po once daily for 19 days", "format": "ADME, organism-based, Neoplasm", "conditions": "time 19 day, read-out: Drug uptake"}, "[29]": {"test": "Plasma concentration in CB.17 SCID mouse tumor xenografted with SUDHL-6 cells assessed as effect on body weight at 5 mg/kg, po once daily for 15 days", "format": "ADME, organism-based", "conditions": "time 15 day"}, "[30]": {"test": "Plasma concentration in CB.17 SCID mouse xenografted with OCI-LY10 cells at 3 mg/kg, po once daily for 24 days", "format": "ADME, organism-based", "conditions": "time 24 day"}, "[31]": {"test": "AUClast in Sprague-Dawley rat at 10 mg/kg, po measured upto 24 hrs by LC-MS/MS analysis", "format": "ADME, organism-based", "design": "route oral, dose 10 mg/kg, time <=24", "conditions": "in vivo"}, "[32]": {"test": "Drug uptake in CB.17 SCID mouse tumor xenografted with OCI-LY10 cells at 3 mg/kg, po once daily for 24 days", "format": "ADME, organism-based, Neoplasm", "conditions": "time 24 day, read-out: Drug uptake"}, "[33]": {"test": "Free drug concentration in CB.17 SCID mouse xenografted with TMD-8 cells at 30 mg/kg, po once daily for 19 days", "format": "ADME, organism-based", "conditions": "in vivo, 456 h, time 19 day"}, "[34]": {"test": "Tmax in Sprague-Dawley rat at 1 mg/kg, iv measured upto 24 hrs by LC-MS/MS analysis", "format": "ADME, organism-based", "conditions": "in vivo"}, "[35]": {"test": "Drug uptake in CB.17 SCID mouse tumor xenografted with OCI-LY10 cells at 10 mg/kg, po once daily for 24 days", "format": "ADME, organism-based, Neoplasm", "conditions": "time 24 day, read-out: Drug uptake"}, "[36]": {"test": "Tmax in Sprague-Dawley rat at 10 mg/kg, po measured upto 24 hrs by LC-MS/MS analysis", "format": "ADME, organism-based", "conditions": "in vivo"}, "[37]": {"test": "Drug uptake in CB.17 SCID mouse tumor xenografted with OCI-LY10 cells at 1 mg/kg, po once daily for 24 days", "format": "ADME, organism-based, Neoplasm", "conditions": "time 24 day, read-out: Drug uptake"}, "[38]": {"test": "Drug uptake in CB.17 SCID mouse tumor xenografted with TMD-8 cells at 1 mg/kg, po once daily for 19 days", "format": "ADME, organism-based, Neoplasm", "conditions": "time 19 day, read-out: Drug uptake"}, "[39]": {"test": "AUClast in Sprague-Dawley rat at 1 mg/kg, iv measured upto 24 hrs by LC-MS/MS analysis", "format": "ADME, organism-based", "design": "route intravenous, dose 1 mg/kg, time <=24", "conditions": "in vivo"}}}
{"compound": "C[C@H](Nc1nc(N)nc(N)c1C#N)c1cc(=O)n2cc(F)ccc2c1-c1cc(F)cc(F)c1", "values": [{"measurement": "AUC(0-t) at 24 h", "setting": "[1]", "value": 12, "unit": "µM·h"}, {"measurement": "logD", "setting": "[2]", "value": 1.88}, {"measurement": "Cmax", "setting": "[3]", "value": 1100, "unit": "nM"}, {"measurement": "Tmax", "setting": "[4]", "value": 4.8, "unit": "min"}, {"measurement": "Tmax", "setting": "[5]", "value": 30, "unit": "min"}, {"measurement": "Cmax", "setting": "[6]", "value": 4700, "unit": "nM"}, {"measurement": "bioavailability", "setting": "[7]", "value": 60, "unit": "%"}, {"measurement": "Vd", "setting": "[8]", "value": 1.9, "unit": "L/kg"}, {"measurement": "solubility", "setting": "[9]", "value": 368, "unit": "µM"}, {"measurement": "AUC(0-t) at 24 h", "setting": "[10]", "value": 2, "unit": "µM·h"}]}
{"compound": "C[C@H](Nc1nc(N)nc(N)c1C#N)c1c(-c2ccccc2)c(=O)n2cc(F)ccc2c1-c1ccc(F)cc1", "values": [{"measurement": "concentration at 456 h", "setting": "[11]", "value": 4080, "unit": "nM"}, {"measurement": "concentration at 360 h", "setting": "[12]", "value": 200, "unit": "nM"}, {"measurement": "AUC(0-t) at 24 h", "setting": "[1]", "value": 22, "unit": "µM·h"}, {"measurement": "Cmax", "setting": "[13]", "value": 1700, "unit": "nM"}, {"measurement": "Drug uptake(free)", "setting": "[14]", "value": 157.6, "unit": "nM"}, {"measurement": "logD", "setting": "[2]", "value": 2.38}, {"measurement": "Cmax", "setting": "[3]", "value": 2300, "unit": "nM"}, {"measurement": "Tmax", "setting": "[4]", "value": 4.8, "unit": "min"}, {"measurement": "concentration at 456 h", "setting": "[15]", "value": 700, "unit": "nM"}, {"measurement": "Cmax", "setting": "[16]", "value": 4800, "unit": "nM"}, {"measurement": "Tmax", "setting": "[5]", "value": 60, "unit": "min"}, {"measurement": "Cmax", "setting": "[6]", "value": 7500, "unit": "nM"}, {"measurement": "bioavailability", "setting": "[17]", "value": 33, "unit": "%"}, {"measurement": "concentration at 576 h", "setting": "[18]", "value": 180, "unit": "nM"}, {"measurement": "concentration at 576 h", "setting": "[19]", "value": 5220, "unit": "nM"}, {"measurement": "Vd", "setting": "[20]", "value": 0.4, "unit": "L/kg"}, {"measurement": "concentration at 456 h", "setting": "[21]", "value": 210, "unit": "nM"}, {"measurement": "Vd", "setting": "[22]", "value": 1, "unit": "L/kg"}, {"measurement": "concentration at 456 h", "setting": "[23]", "value": 2670, "unit": "nM"}, {"measurement": "concentration at 456 h", "setting": "[24]", "value": 630, "unit": "nM"}, {"measurement": "concentration at 456 h", "setting": "[25]", "value": 5500, "unit": "nM"}, {"measurement": "concentration at 576 h", "setting": "[26]", "value": 3250, "unit": "nM"}, {"measurement": "concentration at 576 h", "setting": "[27]", "value": 1720, "unit": "nM"}, {"measurement": "concentration at 456 h", "setting": "[28]", "value": 1650, "unit": "nM"}, {"measurement": "concentration at 360 h", "setting": "[29]", "value": 380, "unit": "nM"}, {"measurement": "concentration at 576 h", "setting": "[30]", "value": 710, "unit": "nM"}, {"measurement": "AUC(0-t) at 24 h", "setting": "[31]", "value": 36, "unit": "µM·h"}, {"measurement": "bioavailability", "setting": "[7]", "value": 39, "unit": "%"}, {"measurement": "concentration at 576 h", "setting": "[32]", "value": 380, "unit": "nM"}, {"measurement": "Drug uptake(free)", "setting": "[33]", "value": 166.1, "unit": "nM"}, {"measurement": "Tmax", "setting": "[34]", "value": 4.8, "unit": "min"}, {"measurement": "concentration at 576 h", "setting": "[35]", "value": 960, "unit": "nM"}, {"measurement": "Vd", "setting": "[8]", "value": 0.7, "unit": "L/kg"}, {"measurement": "solubility", "setting": "[9]", "value": 68.5, "unit": "µM"}, {"measurement": "Tmax", "setting": "[36]", "value": 120, "unit": "min"}, {"measurement": "concentration at 576 h", "setting": "[37]", "value": 130, "unit": "nM"}, {"measurement": "AUC(0-t) at 24 h", "setting": "[10]", "value": 5.7, "unit": "µM·h"}, {"measurement": "concentration at 456 h", "setting": "[38]", "value": 170, "unit": "nM"}, {"measurement": "AUC(0-t) at 24 h", "setting": "[39]", "value": 11, "unit": "µM·h"}]}
